Measurements reported in the supplement of paper PMC10307832.

Experiments:
Ponatinib + Navitoclax = compound: Cc1ccc(C(=O)Nc2ccc(CN3CCN(C)CC3)c(C(F)(F)F)c2)cc1C#Cc1cnc2cccnn12 [Ponatinib] + CC1(C)CCC(c2ccc(Cl)cc2)=C(CN2CCN(c3ccc(C(=O)NS(=O)(=O)c4ccc(N[C@H](CCN5CCOCC5)CSc5ccccc5)c(S(=O)(=O)C(F)(F)F)c4)cc3)CC2)C1 [Navitoclax] (partner 0.5 µM); test: relative viability (nuclei count vs DMSO), 5 days (fraction); higher = more cells survive
Summary of the method: (§1)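 Each reported value is a median over duplicate plates. It expresses relative viability: treated-well nuclei count divided by vehicle-well nuclei count. Lung cancer cell lines in 1536-well plates were dosed by pin tool a day after seeding, alone with one drug or with a fixed anchor-drug dose plus five library-drug doses (not always all listed) in √10 steps, and nuclei were counted after 5 days.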

Pazopanib + Foretinib = compound: Cc1ccc(Nc2nccc(N(C)c3ccc4c(C)n(C)nc4c3)n2)cc1S(N)(=O)=O [Pazopanib] + COc1cc2c(Oc3ccc(NC(=O)C4(C(=O)Nc5ccc(F)cc5)CC4)cc3F)ccnc2cc1OCCCN1CCOCC1 [Foretinib] (partner 0.25 µM); test: as above
Summary of the method: as §1

| Cell Line | relative viability (Ponatinib + Navitoclax; first compound 0.006325 µM) | relative viability (Ponatinib + Navitoclax; first compound 0.06325 µM) | relative viability (Ponatinib + Navitoclax; first compound 0.2 µM) | relative viability (Pazopanib + Foretinib; first compound 0.01 µM) | relative viability (Pazopanib + Foretinib; first compound 0.03162 µM) | relative viability (Pazopanib + Foretinib; first compound 0.1 µM) | relative viability (Pazopanib + Foretinib; first compound 0.3162 µM) | relative viability (Pazopanib + Foretinib; first compound 1 µM) | relative viability (Ponatinib + Navitoclax; first compound 0.002 µM) |
| --- | --- | --- | --- | --- | --- | --- | --- | --- | --- |
| NCI-H1395 | 1.15 | 1.09 | 0.977 | 0.947 | 1.07 | 1.01 | 0.931 | 0.968 |  |
| NCI-H2347 | 0.834 | 0.899 | 0.719 |  |  | 0.934 | 1.21 | 0.843 | 0.684 |
| HCC-366 | 1.02 | 1.14 | 0.966 | 1.01 | 0.956 | 0.974 | 0.969 | 0.938 | 1.03 |
| 201T | 1.21 | 1.22 | 1.23 | 1.13 | 1.09 | 1.1 | 1.15 | 0.996 | 1.2 |
| HCC-827 | 0.971 | 1.06 | 0.983 | 1.07 | 0.992 | 1.05 | 1.06 | 0.969 | 1.02 |
| NCI-H650 |  |  |  | 1.02 | 1.11 | 0.995 | 0.898 | 0.818 |  |
| NCI-H2023 | 0.946 | 1.1 | 1 |  | 0.886 | 0.77 | 0.849 | 0.893 | 0.968 |
| NCI-H596 | 0.969 | 1.03 | 0.733 |  | 0.723 | 0.9 | 0.815 | 0.84 | 0.845 |
| SK-LU-1 | 0.792 | 0.902 | 0.453 | 0.872 | 0.988 | 0.884 | 0.851 | 0.809 | 0.702 |
| A-427 | 0.971 | 1.07 | 0.854 | 0.971 | 1.21 | 1.15 | 1.02 | 1.05 | 0.916 |
| NCI-H460 | 1.05 | 1.24 | 1.06 | 0.942 | 1.07 | 1.01 | 1.03 | 0.997 | 1.04 |
| NCI-H1703 | 0.943 | 0.278 | 0.205 | 0.306 | 0.358 | 0.362 | 0.396 | 0.337 | 0.856 |
| NCI-H1792 | 0.648 | 0.582 | 0.624 |  |  |  |  |  | 0.609 |
| Calu-6 | 0.682 | 0.941 | 0.717 | 0.89 | 0.954 | 0.93 | 0.848 | 0.803 | 0.828 |
| SW 1573 | 0.989 | 1.03 | 0.901 | 0.83 | 0.938 | 0.934 | 0.998 | 0.998 | 1.02 |
| RERF-LC-KJ | 0.968 | 1.07 | 1.06 | 0.844 | 0.859 | 0.857 | 0.86 | 0.792 | 1.09 |
| EMC-BAC-2 | 1.07 | 1.19 | 1.11 |  | 0.991 | 1.01 | 1.02 | 1.06 | 1.06 |
| LK-2 | 0.825 | 1.04 | 0.64 |  | 1.2 | 1.07 | 1.11 | 1.01 | 0.619 |
| NCI-H2126 | 0.871 | 0.963 | 0.848 | 1.16 | 1.18 | 1.26 | 1.06 | 1.06 | 0.823 |
